Experimental data as given in paper PMC12152883, “Bile acids inhibit equilibrative adenosine transport to alter adenosine receptor signaling in cholestasis” (The Journal of Biological Chemistry, 2025).

Columns and labels:
[1] = system: HepG2 cell line; assay: 3H-nucleoside uptake inhibition by BAs in HepG2 cell line; format: cell-based; conditions: BA 100 μM; for % Inhibition of Ado uptake, HepG2 cell line, Sodium buffer / % Inhibition of Ado uptake, HepG2 cell line, Sodium-free buffer: 3H-Ado 0.02 μM; for extent of inhibition of guanosine transport, HepG2 cells: 3H-guanosine 0.02 μM, Na+-free
From the text: In the presence of multiple substrates with similar affinities, the abundant substrate molecules can compete for binding to the transport sites, reducing the transport of the limiting substrate molecules ([31]). […] We tested the possibility of BA-mediated nucleoside transport inhibition using a HeLa cell line (expressing ENTs (ENT1, ENT2) ([32])) and a HepG2 cell line (expressing both ENTs (ENT1, ENT2) and CNTs (CNT1, CNT2) ([33])) to conduct Ado uptake inhibition assays in Na^+-containing (where both ENTs and CNTs are capable of transport) and Na^+-free (only ENTs are capable of transport) buffers (Fig. 3 and Table 1).
The bars represent the mean ± SD (n = 3). A representative experiment from 3 to 5 independent experiments is presented. Statistical analysis was performed using one-way ANOVA with Dunnett’s multiple comparisons test; ∗p < 0.032, ∗∗p < 0.0021, ∗∗∗p < 0.0002.
HeLa (CCL-2) and HepG2 (HB_8065) were procured from ATCC. Both cell lines were cultured in Eagle's minimum essential medium and Dulbecco's modified Eagle's medium, respectively, supplemented with 10% fetal bovine serum and penicillin-streptomycin (1X). After cells were tested free for mycoplasma contamination, they were plated in 24-well plates, and transport assays were conducted when the cells were 80% confluent. The cells were briefly rinsed with PBS, and then the uptake of radiolabeled substrates was measured after a 5 min incubation in sodium containing (130 mM NaCl, 20 mM Tris–HCl, 3 mM K2HPO4, 1 mM MgCl2.6H2O, 2 mM CaCl2, 5 mM glucose, pH 7.4) or sodium-free (130 mM N-methyl-D-glucamin, 20 mM Tris–HCl, 3 mM K2HPO4, 1 mM MgCl2.6H2O, 2 mM CaCl2, 5 mM glucose, pH 7.4) transport buffers at 37 °C. Uptake was terminated by washing the cells three times with ice-cold arrest buffer containing 20 mM uridine. The cells were shaken for 30 min in 10% SDS for complete dissolution, after which the radioactivity was quantified with a Beckman liquid scintillation counter. The data are presented as the mean ± SD (n = 3).

[2] = biological target: T1, ENT2 (Homo sapiens, UniProt Q14542); assay: Radiolabeled BA transport in ENT2 mRNA-injected Xenopus oocytes; format: cell-based; set-up: expressed in transfected cells; host or cells: Xenopus laevis oocytes injected with in vitro-transcribed capped mRNA from pOX-hENT2; conditions: for fold increased transport activity compared with H2O-injected oocytes: 3H-labelled BA, Na+-containing buffer, pH 7.4
T1 sequence (Q14542 1-456): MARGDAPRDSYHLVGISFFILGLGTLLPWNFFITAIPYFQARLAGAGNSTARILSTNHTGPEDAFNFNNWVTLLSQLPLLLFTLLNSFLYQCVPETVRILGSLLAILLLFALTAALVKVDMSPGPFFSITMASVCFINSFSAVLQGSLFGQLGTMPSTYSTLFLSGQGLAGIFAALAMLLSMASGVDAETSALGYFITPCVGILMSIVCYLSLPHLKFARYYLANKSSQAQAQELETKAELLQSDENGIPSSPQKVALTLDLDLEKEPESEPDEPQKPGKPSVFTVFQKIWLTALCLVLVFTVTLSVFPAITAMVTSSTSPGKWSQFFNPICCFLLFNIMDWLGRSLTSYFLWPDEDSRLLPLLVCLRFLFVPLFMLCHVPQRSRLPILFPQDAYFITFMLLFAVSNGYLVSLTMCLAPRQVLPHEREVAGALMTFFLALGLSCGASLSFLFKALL
Description: We used a Xenopus oocyte-based transport assay that was previously used to examine BA transport by plasma membrane–directed ENT3 with a truncated N-terminus (that harbors lysosomal targeting motif) to experimentally verify whether ENT2 is capable of translocating BAs across the cell membrane ([24]). We tested both ENT1 and ENT2 along with CNT2, a purine nucleoside-specific concentrative transporter, to investigate their capacities to transport radiolabeled BAs. […] Transport was measured at pH 7.4, which is the closest pH to the pH of the extracellular fluid in which cells are exposed to solutes such as BAs to conduct plasma membrane transport ([29]).
The generated pOX expression constructs were linearized with either the Not1 or Sac1 restriction enzymes. The digested products were purified via phenol‒chloroform extraction. The mRNAs were synthesized using mMESSAGE mMACHINE (Ambion) transcription kits according to the manufacturer’s instructions. The mRNAs were purified via lithium precipitation. Oocytes were procured from Ecocyte. Prior to experiments, procured oocytes were defolliculated by treating with collagenase A-OR II solution followed by washing with Barth’s solution. Following microscopic verification, selected oocytes were incubated to recover overnight at 25 °C in a shaker incubator. Fifty nanoliters (400–800 ng/μl) of equal amounts of mRNAs were injected into defolliculated oocytes the next day. Expression of plasmids was analyzed after RNA isolation from oocyte extracts and conducting qPCR analysis with gene-specific primers as described earlier ([30]). The injected oocytes were incubated at 15 °C for 24 h before transport assays were performed. The uptake of radiolabeled substrates was measured after a 30 min incubation in transport buffer (100 mM NaCl, 2 mM KCl, 1 mM CaCl2, 1 mM MgCl2, and 10 mM Hepes, pH 7.4) at room temperature. Uptake was terminated by washing the oocytes three times with arrest buffer containing 20 mM uridine. Individual oocytes were shaken overnight in 10% SDS for complete dissolution, and then the radioactivity was quantified with a Beckman liquid scintillation counter. The data are presented as the mean ± SD (n = 8–12 oocytes). A representative experiment from 3 to 5 independent experiments is presented.

Structure (SMILES)	% Inhibition of Ado uptake, HepG2 cell line, Sodium buffer [1]	% Inhibition of Ado uptake, HepG2 cell line, Sodium-free buffer [1]	extent of inhibition of guanosine transport, HepG2 cells [1]	Km ([2]; oocytes, Fig. 2B)	Vmax of BA transport by ENT2 ([2]; oocytes, Fig. 2B)	pH dependence of 3H-CA transport mediated by ENT2 ([2]; pH 5.5 to pH 7.4)	fold increased transport activity compared with H2O-injected oocytes [2]
C[C@H](CCC(=O)O)[C@H]1CC[C@H]2[C@@H]3[C@H](O)C[C@@H]4C[C@H](O)CC[C@]4(C)[C@H]3C[C@H](O)[C@]12C [CA, cholic acid]	n.s.	59.86 ± 0.19%	12%	~195 µM	2.84 pmol/oocyte∗30 min	not dependent on pH	–
C[C@H](CCC(=O)O)[C@H]1CC[C@H]2[C@@H]3CC[C@@H]4C[C@H](O)CC[C@]4(C)[C@H]3C[C@H](O)[C@]12C [DCA, deoxycholic acid]	n.s.	49.36 ± 0.02%	12%	–	3.359 pmol/oocyte∗30 min	–	1.78 fold
C[C@H](CCC(=O)NCCS(=O)(=O)O)[C@H]1CC[C@H]2[C@@H]3[C@H](O)C[C@@H]4C[C@H](O)CC[C@]4(C)[C@H]3C[C@H](O)[C@]12C [TCA, taurocholic acid]	n.s.	62.36 ± 0.03%	17.5%	–	–	–	2.23 fold
